What was measured:
Assay in all cases: kinase selectivity panel
Assay type in all cases: biochemical
BTK = molecular target: T1, BTK (Homo sapiens, UniProt Q06187); settings: read-out: percentage of control activity (POC), BTK
T1 construct: purchased Eurofins Pharma Discovery Services (KinaseProfiler; Cerep BioPrint panel)
How it was run: (§1)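 Tested at 10 μM in duplicate within a panel of 125 representative kinases. For selected activities, IC50 values were then determined from 9 concentrations, each run in duplicate.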

CDK7/cyclinH/MAT1 = molecular target: T2, CDK7/cyclinH/MAT1 (Homo sapiens, UniProt P50613); settings: read-out: percentage of control activity (POC), CDK7/cyclinH/MAT1
T2 construct: purchased Eurofins Pharma Discovery Services (KinaseProfiler; Cerep BioPrint panel)
How it was run: as §1

CHK1 = molecular target: T3, CHK1 (Homo sapiens, UniProt O14757); settings: read-out: percentage of control activity (POC), CHK1
T3 construct: purchased Eurofins Pharma Discovery Services (KinaseProfiler; Cerep BioPrint panel)
T3 sequence (O14757 1-476): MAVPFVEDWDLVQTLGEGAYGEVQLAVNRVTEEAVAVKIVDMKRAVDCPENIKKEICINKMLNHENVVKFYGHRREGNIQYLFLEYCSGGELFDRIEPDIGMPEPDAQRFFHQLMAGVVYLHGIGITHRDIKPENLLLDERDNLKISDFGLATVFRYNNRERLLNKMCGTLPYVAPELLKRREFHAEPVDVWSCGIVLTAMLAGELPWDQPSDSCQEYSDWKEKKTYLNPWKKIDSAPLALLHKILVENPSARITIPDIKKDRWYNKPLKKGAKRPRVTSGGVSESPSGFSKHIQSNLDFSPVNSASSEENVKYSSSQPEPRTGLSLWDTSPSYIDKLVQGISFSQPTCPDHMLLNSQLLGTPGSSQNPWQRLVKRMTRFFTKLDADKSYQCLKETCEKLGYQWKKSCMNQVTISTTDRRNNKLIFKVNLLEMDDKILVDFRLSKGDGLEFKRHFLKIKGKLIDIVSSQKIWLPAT
How it was run: as §1

CaMKIIδ = molecular target: T4, CaMKIIδ (Homo sapiens, UniProt Q13557); settings: read-out: percentage of control activity (POC), CaMKIIδ
T4 construct: purchased Eurofins Pharma Discovery Services (KinaseProfiler; Cerep BioPrint panel)
How it was run: as §1

IKKα = molecular target: T5, IKKα (Homo sapiens, UniProt O15111); settings: read-out: percentage of control activity (POC), IKKα
T5 construct: purchased Eurofins Pharma Discovery Services (KinaseProfiler; Cerep BioPrint panel)
T5 sequence (O15111 1-745): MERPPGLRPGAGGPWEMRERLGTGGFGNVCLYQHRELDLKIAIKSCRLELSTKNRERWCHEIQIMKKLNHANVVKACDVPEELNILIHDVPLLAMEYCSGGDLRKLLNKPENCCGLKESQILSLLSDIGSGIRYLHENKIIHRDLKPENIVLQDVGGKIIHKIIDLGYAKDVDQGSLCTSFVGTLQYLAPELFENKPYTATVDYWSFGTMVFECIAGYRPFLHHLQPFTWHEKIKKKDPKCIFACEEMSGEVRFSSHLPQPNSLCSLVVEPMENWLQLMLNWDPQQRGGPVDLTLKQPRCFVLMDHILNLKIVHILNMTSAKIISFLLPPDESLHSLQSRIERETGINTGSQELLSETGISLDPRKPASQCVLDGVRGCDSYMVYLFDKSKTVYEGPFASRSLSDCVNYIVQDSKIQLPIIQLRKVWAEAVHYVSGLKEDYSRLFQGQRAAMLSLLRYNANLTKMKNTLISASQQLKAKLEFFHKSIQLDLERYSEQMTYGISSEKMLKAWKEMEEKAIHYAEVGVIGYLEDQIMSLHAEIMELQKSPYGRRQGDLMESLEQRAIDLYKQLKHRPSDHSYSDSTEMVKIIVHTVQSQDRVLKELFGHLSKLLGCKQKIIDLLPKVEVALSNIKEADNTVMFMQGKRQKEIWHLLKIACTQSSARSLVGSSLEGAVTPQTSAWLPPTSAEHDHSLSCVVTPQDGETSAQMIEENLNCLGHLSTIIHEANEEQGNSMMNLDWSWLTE
How it was run: as §1

JAK2 = molecular target: T6, JAK2 (Homo sapiens, UniProt O60674); settings: read-out: percentage of control activity (POC), JAK2
T6 construct: purchased Eurofins Pharma Discovery Services (KinaseProfiler; Cerep BioPrint panel)
How it was run: as §1

Met = molecular target: T7, Met (Homo sapiens, UniProt P08581); settings: read-out: percentage of control activity (POC), Met
T7 construct: purchased Eurofins Pharma Discovery Services (KinaseProfiler; Cerep BioPrint panel)
How it was run: as §1

ROCK-II = molecular target: T8, ROCK-II (Homo sapiens, UniProt O75116); settings: read-out: percentage of control activity (POC), ROCK-II
T8 construct: purchased Eurofins Pharma Discovery Services (KinaseProfiler; Cerep BioPrint panel)
How it was run: as §1

Rsk3 = molecular target: T9, Rsk3 (Homo sapiens, UniProt Q15349); settings: read-out: percentage of control activity (POC), Rsk3
T9 construct: purchased Eurofins Pharma Discovery Services (KinaseProfiler; Cerep BioPrint panel)
How it was run: as §1

TrkB = molecular target: T10, TrkB (Homo sapiens, UniProt Q16620); settings: for remaining activity at 10 µM: read-out: percentage of control activity (POC), TrkB
T10 construct: purchased Eurofins Pharma Discovery Services (KinaseProfiler; Cerep BioPrint panel)
How it was run: as §1

p70S6K = molecular target: T11, p70S6K (Homo sapiens, UniProt P23443); settings: read-out: percentage of control activity (POC), p70S6K
T11 construct: purchased Eurofins Pharma Discovery Services (KinaseProfiler; Cerep BioPrint panel)
How it was run: as §1

T7 sequence (P08581 25-1390): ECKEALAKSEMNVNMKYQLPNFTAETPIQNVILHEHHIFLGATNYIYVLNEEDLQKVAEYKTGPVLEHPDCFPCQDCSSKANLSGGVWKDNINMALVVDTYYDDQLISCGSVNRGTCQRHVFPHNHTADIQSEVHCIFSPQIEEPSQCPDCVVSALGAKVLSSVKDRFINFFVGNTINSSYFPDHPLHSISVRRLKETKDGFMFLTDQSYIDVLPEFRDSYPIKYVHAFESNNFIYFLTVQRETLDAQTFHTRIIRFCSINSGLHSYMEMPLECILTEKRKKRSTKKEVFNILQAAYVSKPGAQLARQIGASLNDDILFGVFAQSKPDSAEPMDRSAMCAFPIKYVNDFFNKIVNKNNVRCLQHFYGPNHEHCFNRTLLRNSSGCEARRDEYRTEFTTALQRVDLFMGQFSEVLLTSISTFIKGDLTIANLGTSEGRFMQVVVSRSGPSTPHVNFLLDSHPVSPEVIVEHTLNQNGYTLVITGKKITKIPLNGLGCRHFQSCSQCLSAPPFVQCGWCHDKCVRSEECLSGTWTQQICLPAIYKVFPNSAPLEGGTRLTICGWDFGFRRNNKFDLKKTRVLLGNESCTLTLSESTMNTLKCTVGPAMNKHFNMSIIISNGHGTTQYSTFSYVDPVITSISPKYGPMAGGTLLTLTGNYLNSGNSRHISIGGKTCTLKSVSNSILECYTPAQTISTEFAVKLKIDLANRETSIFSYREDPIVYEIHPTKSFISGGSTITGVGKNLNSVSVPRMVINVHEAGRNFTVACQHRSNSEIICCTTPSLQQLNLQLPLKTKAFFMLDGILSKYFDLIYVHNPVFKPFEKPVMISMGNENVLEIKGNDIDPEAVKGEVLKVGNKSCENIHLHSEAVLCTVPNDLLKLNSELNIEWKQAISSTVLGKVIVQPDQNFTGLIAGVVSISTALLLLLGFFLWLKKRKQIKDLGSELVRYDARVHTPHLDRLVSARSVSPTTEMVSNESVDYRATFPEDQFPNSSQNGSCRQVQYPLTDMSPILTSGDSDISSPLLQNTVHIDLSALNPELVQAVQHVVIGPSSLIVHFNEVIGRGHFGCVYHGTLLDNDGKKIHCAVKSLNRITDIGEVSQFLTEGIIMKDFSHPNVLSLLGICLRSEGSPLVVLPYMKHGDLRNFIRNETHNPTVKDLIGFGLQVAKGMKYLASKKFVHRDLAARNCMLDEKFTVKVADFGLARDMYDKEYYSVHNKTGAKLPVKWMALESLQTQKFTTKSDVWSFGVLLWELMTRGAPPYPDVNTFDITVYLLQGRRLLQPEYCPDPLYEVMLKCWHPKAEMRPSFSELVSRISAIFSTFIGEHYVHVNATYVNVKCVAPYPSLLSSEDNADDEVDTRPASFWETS
T10 sequence (Q16620 32-822): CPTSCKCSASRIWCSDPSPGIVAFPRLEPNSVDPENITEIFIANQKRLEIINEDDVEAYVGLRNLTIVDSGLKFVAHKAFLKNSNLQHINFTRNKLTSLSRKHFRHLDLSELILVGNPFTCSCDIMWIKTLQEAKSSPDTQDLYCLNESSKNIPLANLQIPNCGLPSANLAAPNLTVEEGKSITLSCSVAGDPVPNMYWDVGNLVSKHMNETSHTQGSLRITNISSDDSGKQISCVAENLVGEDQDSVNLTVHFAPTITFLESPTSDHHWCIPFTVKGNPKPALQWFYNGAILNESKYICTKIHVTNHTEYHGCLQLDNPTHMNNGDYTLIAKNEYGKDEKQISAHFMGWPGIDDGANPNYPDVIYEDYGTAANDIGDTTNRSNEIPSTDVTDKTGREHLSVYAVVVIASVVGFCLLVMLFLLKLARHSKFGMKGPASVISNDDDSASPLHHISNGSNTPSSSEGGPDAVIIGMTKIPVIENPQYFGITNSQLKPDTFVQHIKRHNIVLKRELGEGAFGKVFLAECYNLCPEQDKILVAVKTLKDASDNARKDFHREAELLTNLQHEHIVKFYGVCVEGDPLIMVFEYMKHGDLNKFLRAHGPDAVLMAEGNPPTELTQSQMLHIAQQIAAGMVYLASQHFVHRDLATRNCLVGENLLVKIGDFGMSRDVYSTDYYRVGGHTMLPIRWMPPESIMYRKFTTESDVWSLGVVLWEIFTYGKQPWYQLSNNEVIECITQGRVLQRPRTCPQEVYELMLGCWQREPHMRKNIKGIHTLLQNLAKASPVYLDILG
T8 sequence (O75116 whole entry): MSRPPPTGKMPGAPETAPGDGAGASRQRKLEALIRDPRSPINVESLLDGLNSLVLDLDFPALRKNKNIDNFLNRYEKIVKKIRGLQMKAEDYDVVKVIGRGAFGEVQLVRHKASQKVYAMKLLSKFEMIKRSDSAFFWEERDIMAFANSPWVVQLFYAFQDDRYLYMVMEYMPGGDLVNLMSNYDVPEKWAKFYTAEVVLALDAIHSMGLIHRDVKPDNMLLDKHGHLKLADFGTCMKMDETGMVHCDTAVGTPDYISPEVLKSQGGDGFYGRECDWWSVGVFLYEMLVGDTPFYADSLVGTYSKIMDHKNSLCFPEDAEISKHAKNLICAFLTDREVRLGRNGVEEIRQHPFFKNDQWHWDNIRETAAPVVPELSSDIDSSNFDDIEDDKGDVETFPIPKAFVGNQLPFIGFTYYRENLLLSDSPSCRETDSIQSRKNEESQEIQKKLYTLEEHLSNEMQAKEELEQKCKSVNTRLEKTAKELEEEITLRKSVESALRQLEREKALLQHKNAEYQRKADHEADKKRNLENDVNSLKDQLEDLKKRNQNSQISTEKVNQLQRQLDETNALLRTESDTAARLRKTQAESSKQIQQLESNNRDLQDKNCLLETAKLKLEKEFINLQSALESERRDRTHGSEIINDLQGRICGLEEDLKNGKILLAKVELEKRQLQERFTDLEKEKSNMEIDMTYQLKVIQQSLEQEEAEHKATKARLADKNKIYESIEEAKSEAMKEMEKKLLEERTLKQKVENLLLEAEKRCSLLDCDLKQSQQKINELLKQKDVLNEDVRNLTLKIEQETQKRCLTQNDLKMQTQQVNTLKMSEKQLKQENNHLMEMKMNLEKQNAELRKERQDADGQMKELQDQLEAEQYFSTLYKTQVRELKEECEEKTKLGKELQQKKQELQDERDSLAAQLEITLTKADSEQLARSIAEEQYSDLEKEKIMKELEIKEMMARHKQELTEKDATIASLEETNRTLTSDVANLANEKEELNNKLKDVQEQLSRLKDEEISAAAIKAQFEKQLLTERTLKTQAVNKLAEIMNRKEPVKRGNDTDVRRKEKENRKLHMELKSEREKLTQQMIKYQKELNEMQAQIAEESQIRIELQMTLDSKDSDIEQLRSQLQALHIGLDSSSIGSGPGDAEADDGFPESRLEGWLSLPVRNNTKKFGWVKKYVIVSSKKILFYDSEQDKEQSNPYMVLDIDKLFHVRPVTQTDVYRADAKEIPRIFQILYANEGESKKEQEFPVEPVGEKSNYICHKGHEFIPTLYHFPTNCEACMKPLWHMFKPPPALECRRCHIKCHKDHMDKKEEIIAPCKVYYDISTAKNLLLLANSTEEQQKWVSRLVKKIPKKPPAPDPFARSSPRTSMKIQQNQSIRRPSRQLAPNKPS
T4 sequence (Q13557 whole entry): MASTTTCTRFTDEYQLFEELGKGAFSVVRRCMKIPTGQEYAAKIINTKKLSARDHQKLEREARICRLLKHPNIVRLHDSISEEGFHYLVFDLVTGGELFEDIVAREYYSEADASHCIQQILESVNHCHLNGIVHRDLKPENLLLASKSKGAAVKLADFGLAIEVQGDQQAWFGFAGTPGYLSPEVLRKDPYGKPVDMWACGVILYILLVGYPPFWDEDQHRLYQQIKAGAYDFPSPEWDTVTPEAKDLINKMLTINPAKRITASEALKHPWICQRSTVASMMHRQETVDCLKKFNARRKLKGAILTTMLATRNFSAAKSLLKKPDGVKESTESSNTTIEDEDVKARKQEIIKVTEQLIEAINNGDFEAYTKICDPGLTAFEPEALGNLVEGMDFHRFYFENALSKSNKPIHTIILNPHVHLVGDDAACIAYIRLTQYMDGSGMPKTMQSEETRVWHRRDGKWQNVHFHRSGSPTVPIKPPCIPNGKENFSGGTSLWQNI
T11 sequence (P23443 whole entry): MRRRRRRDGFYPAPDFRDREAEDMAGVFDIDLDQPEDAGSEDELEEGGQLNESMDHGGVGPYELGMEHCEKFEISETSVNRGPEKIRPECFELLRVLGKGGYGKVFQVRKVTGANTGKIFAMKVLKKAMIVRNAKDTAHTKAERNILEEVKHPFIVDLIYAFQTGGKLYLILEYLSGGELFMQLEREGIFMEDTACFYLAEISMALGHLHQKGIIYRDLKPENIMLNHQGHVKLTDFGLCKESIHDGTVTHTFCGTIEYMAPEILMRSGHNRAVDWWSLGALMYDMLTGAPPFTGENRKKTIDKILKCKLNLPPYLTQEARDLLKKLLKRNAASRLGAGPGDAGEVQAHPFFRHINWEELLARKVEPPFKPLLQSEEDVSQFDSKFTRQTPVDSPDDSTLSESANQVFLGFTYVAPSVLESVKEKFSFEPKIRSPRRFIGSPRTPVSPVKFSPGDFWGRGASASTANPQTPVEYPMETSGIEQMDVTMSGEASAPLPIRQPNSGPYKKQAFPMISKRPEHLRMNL

Compound | remaining activity at 10 µM (BTK) [%] | remaining activity at 10 µM (CDK7/cyclinH/MAT1) [%] | remaining activity at 10 µM (CHK1) [%] | remaining activity at 10 µM (CaMKIIδ) [%] | remaining activity at 10 µM (IKKα) [%] | remaining activity at 10 µM (JAK2) [%] | remaining activity at 10 µM (Met) [%] | remaining activity at 10 µM (ROCK-II) [%] | remaining activity at 10 µM (Rsk3) [%] | inhibition at 10 µM (TrkB) [%] | remaining activity at 10 µM (TrkB) [%] | remaining activity at 10 µM (p70S6K) [%]
Cn1cc(-c2cccc(-c3nc(C(=O)NC4C5CC6CC4CC(O)(C6)C5)c(N)nc3N)c2)cn1 (centres unmarked) [compound 4] | 89 | 95 | 94 | 93 | 100 | 88 | 87 | 85 | 75 |  | 57 | 92
CS(=O)(=O)N1CCN(c2ccc(Nc3ncc(C(N)=O)c(NC4CC4)n3)cc2)CC1 [compound 5] | 17 | 71 | 1 | 27 | 1 | -3 | 45 | 3 | 0 |  | 3 | 54

The next lines start with the values.

remaining activity at 10 µM (BTK) [%] | remaining activity at 10 µM (CDK7/cyclinH/MAT1) [%] | remaining activity at 10 µM (CHK1) [%] | remaining activity at 10 µM (CaMKIIδ) [%] | remaining activity at 10 µM (IKKα) [%] | remaining activity at 10 µM (JAK2) [%] | remaining activity at 10 µM (Met) [%] | remaining activity at 10 µM (ROCK-II) [%] | remaining activity at 10 µM (Rsk3) [%] | inhibition at 10 µM (TrkB) [%] | remaining activity at 10 µM (TrkB) [%] | remaining activity at 10 µM (p70S6K) [%] | Compound
114 | 115 | 103 | 100 | 102 | 105 | 83 | 100 | 99 | 75 | 25 | 104 | CC(C)(C)N1CCC(c2cc(-c3ccc(F)cc3Cl)c3cc[n+]([O-])c(-c4c(Cl)cccc4Cl)c3n2)CC1 [compound 2]
98 | 104 | 100 | 103 | 101 | 108 | 86 | 96 | 102 |  | 96 | 95 | Cc1ccc(C(=O)NCC2CC2)cc1-c1ccc2c(c1)NC(=O)C21CCCC1 [compound 3]
112 | 101 | 103 | 96 | 135 | 104 | 109 | 93 | 110 |  | 84 | 102 | COc1c(NC(=O)c2ccc(C)c(-c3nnc4c(NCC(C)(C)C)nccn34)c2)cc(C(C)(C)C)cc1NS(C)(=O)=O [compound 7, reference compound]
